According to patent US20010046996A1, “Use of a compound for preparing a drug” (priority 2000, published 2001):

Tests used:
Assay type in all cases: in vivo
Lewis rats = test: EAE (experimental autoimmune encephalomyelitis) rat model for MS, clinical score; conditions: for delay of onset / recovery starts earlier: FIG. 2, versus control
rabbit = test: Acute toxicity, cutaneous, rabbit
Protocol: (§1) The tested substance(B-220), was administered daily with 6 mg/animal, a dose that can be increased since the margin to toxic effects is wide and most likely further reduce the symptoms. It is to be noted that the acute toxicity of the tested substance used according to the present invention is low, which is exemplified with the following: […]

rat = test: Acute toxicity, rat
Protocol: as §1

mice = test: Chronic toxicity on mice; conditions: tested up to 270 days

Cc1cc2nc3c4ccccc4n(CCN(C)C)c3nc2cc1C [B-220]
reduction of the CNS symptoms (clinical score) (Lewis rats; FIG. 1, B-220 daily 6 mg/animal, Interferon-beta daily 3×10^5 U/animal, versus negative control): 2/3 | delay of onset (Lewis rats; 6 mg/animal): ~2 days | recovery starts earlier (Lewis rats; 6 mg/animal): ~2 days | delay of onset (Lewis rats; 12 mg/animal): ~4 days | recovery starts earlier (Lewis rats; 12 mg/animal): ~3 days | NOEL (No Observable Effect Level) (rabbit): 200 mg/kg bw | LD50 (rat; intravenous): > 100 mg/kg bw | NOEL (No Observable Effect Level) (rat; intravenous): 12.5 mg/kg bw | LD50 (rat; oral): > 800 mg/kg bw | chronic toxicity (mice): has not induced toxicity
